The source of these data is patent US20050070591A1, “Indole derivative” (priority 2001, published 2005).

“And” between values parts separate entries of the source, which are not always exact repeats. Identical values can stand only once.

Experiment [1] relates to human epidermoid carcinoma cells A431. The experiment in a line: Abrogating action for the cell cycle accumulation in G2 and S phases (flow cytometry DNA histogram). It is filed as cell-based. The settings on record: cisplatin 20 μmol/L. Here is the method: Each 5 mL of human epidermoid carcinoma cells A431 (hereinafter, referred to as A431 cells) prepared in 6×10^4 cells/mL in a DMEM medium (manufactured by Nissui; hereinafter, referred to as the medium A) containing 10% fetal bovine serum were disposed in a 10-cm laboratory dish (manufactured by Falcon; product no. 3303). The plate was incubated in a carbon dioxide gas incubator at 37° C. for 24 hours, then cisplatin (manufactured by Sigma) where its final concentration in the medium A was made 20 μmol/L was added and the mixture was incubated at 37° C. for 1 hour in a carbon dioxide gas incubator.
After removing the medium, the cell was washed with PBS(−) [phosphate-buffered physiological saline solution (containing no calcium ion); manufactured by Dainippon Pharmaceutical, then the medium A was added thereto, the mixture was incubated at 37° C. for 15 hours in a carbon dioxide gas incubator, a compound which was appropriately diluted with the medium A was added thereto and the mixture was incubated again in a carbon dioxide gas incubator at 37° C. for 8 hours. After removal of the supernatant from the culture, the cell was washed with PBS(−), exfoliated with a 0.25% aqueous solution of trypsin (0.25% Trypsin manufactured by Gibco BRL) and a 0.02% aqueous solution of ethylenediaminetetraacetic acid (manufactured by Wako Pure Chemicals), fixed with a 70% aqueous solution of ethanol so as to make the cell concentration 10^6 cells/mL and preserved in a cool chamber of 4° C. The fixed cells were subjected to a centrifugal separation to remove ethanol, washed with PBS(−) and treated with a 0.25 mg/mL ribonuclease A type 1-A (manufactured by Sigma) PBS(−) solution containing 0.1% Nonidet P-40 (manufactured by Nakarai Kagaku Yakuhin) at 37° C. for 30 minutes and a 0.1% solution of propidium iodide (manufactured by Sigma) in NP-40/PBS(−) so as to make the final concentration 50 μg/mL followed by staining in ice for not shorter than 20 minutes.
A DNA histogram was measured using an EPICS ELITE Flow Cytometer (manufactured by Coulter) and distribution of cell cycle was analyzed using a MultiCycle Program (manufactured by Phonenix Flow Systems).

Another experiment concerns the target T1, human CDK2-cyclin E (Homo sapiens, UniProt P24941).
T1 construct: made in house; host or cells: Spodoptera frugiperda (Sf-9) insect cells, baculovirus
The experiment in a line: CDK2 inhibitory activity (incorporation of 32P from [γ-32P]-ATP into GST-RB). It counts as biochemical. The settings on record: 50 μmol/L ATP, 30° C., 5 minutes; read-out: Enzyme Inhibitory Activity, IC50. The protocol:
A crude extract of cells of an insect, Spodoptera frugiperda (Sf-9) infected with human CDK2-cyclin E-expressing baculovirus was subjected to an affinity purification to give an enzyme solution. The enzyme solution (4 μL), 20 μL of reaction solution containing a DMSO solution in which a test compound was dissolved (final concentration: 0.1%) and 5 μL of a substrate solution [50 μmol/L of ATP (final concentration), 2 μCi of [γ-^32P]-ATP and 500 ng of […] (GST-RB)] were incubated at 30° C. for 5 minutes. A sodium dodecylsulfate-polyacrylamide gel electrophoresis (SDS-PAGE) was carried out, then incorporation of radiation activity from [γ-^32P]-ATP into GST-RB was determined using an Image Analyzer BAS 200 (Fuji Photo-Film) and an enzyme inhibition was calculated. CDK2 inhibitory activity (I) at various concentrations of a test compound was calculated by the following formula using radiation activity (C) of the group to which no test compound was added, radiation activity (S) of the group to which a test compound was added and radiation activity (B) of a background (a sample where the reaction time was 0 hour) and a concentration by which CDK2 activity was inhibited to an extent of 50% by each test compound was defined as IC50. I(%)=[1−(S−B)/(C−B)]×100

The next experiment relates to Saos-2 cells. The experiment in a line: Cell growth inhibition against human osteosarcoma cells Saos-2. It is filed as cell-based. Conditions: Saos-2, 72 hours, read-out: Cell Growth Inhibitory Activity, IC50, Saos-2. The protocol: (§1) Each of Saos-2 and U2OS cells was made into 1.0×10^4 cells/mL using a Roswell Park Memorial Institute's medium (RPMI) 1640 (manufactured by Nissui) containing 10% of fetal bovine serum and penicillin/streptomycin and a Dulbecco's modified Eagle medium (DME) (manufactured by Nissui) containing 10% fetal bovine serum and penicillin/streptomycin each. Each of the prepared cells was dispensed in an amount of 0.1 mL per well to a 96-well microtiter plate (#167008 manufactured by Nunk). Each plate was incubated in a carbon dioxide gas incubator at 37° C. for 20 hours. A solution of a test compound in DMSO prepared into 10 mmol/L was diluted with each medium for incubation and each 0.05 mL thereof was added to each well, subjected to stepwise dilution by means of a pipetting operation in the plate and incubated at 37° C. for 72 hours in a carbon dioxide gas incubator.
(§2) A supernatant was removed from cell culture, each well was washed with 0.1 mL of a phosphate buffer (PBS buffer) twice and 0.1 mL of the above medium was added to each well. A cell proliferation kit II (manufactured by Boehringer Mannheim) was used for the measurement of cell numbers in each well. A reagent for color reaction was added, incubation was carried out in a carbon dioxide gas incubator at 37° C. for 3 hours and absorbance at 490 nm and 650 nm was measured in a microplate reader (M-SP max 250; manufactured by Wako Pure Chemicals). A value where absorbance at 650 nm was deducted from that at 490 nm (difference absorbance) was calculated for each well and the difference absorbance obtained from non-treated cells and cells which were treated with a test compound of a known concentration was compared whereupon a concentration of the test compound which inhibited the cell growth to an extent of 50% was calculated and expressed as IC50.

The subject of another experiment is U2OS cells. The experiment in a line: Cell growth inhibition against human osteosarcoma cells U2OS. It counts as cell-based. The settings on record: 72 hours, read-out: Cell Growth Inhibitory Activity, IC50, U2OS. The protocol:
as §1, §2

Turning to `N.N.[Cl][Pt][Cl]` [Cisplatin, cisplatin], in experiment [1], the “Cell Cycle Distribution (%) G1” value is 2.2% and 10.4%; the “Cell Cycle Distribution (%) G2M” value is 17.2% and 22.4%; the “Cell Cycle Distribution (%) S” value is 80.6% and 67.2%; the “Change of cell cycle distribution as compared with untreated groups (induction of the accumulation in G2 or S phase)” value was “increase in S phase, increase in G2 and M phase and decrease in G1 phase”. On to `CCCCC(=O)Oc1cccc(-c2cc3c(cc(C=O)n3C)c3c2C(=O)NC3=O)c1` [Compound 12], for which the IC50 on human CDK2-cyclin E turned out to be 5000 nM. In the case of `Cn1c2ccccc2c2c3c(c(CBr)cc21)C(=O)NC3=O` [Compound 36], at human CDK2-cyclin E, the IC50 worked out at 2300 nM. Take `C=CCn1c2ccccc2c2c3c(c(N)cc21)C(=O)NC3=O` [Compound 45]: the IC50 at human CDK2-cyclin E was determined as 4900 nM.

In the case of `C=CCn1c2ccccc2c2c3c(c(CO)cc21)C(=O)NC3=O` [Compound 46], the IC50 at human CDK2-cyclin E worked out at 3300 nM.

On to `C=CCn1c2ccccc2c2c3c(c(COC4CCCCO4)cc21)C(=O)NC3=O` (centres unmarked) [Compound 47], for which the half-inhibitory concentration (IC50) on human CDK2-cyclin E turned out to be 4000 nM. Still for that read-out and setting: under `C=CCn1c2ccccc2c2c3c(c(CN=[N+]=[N-])cc21)C(=O)NC3=O` [Compound 48] stands 430 nM; under `C=CCn1c2ccccc2c2c3c(c(C=O)cc21)C(=O)NC3=O` [Compound 50], 660 nM; under `C=CCn1c2ccccc2c2c3c(c(C=NNCCO)cc21)C(=O)NC3=O` [Compound 54], 2000 nM.

As to `CN(C)CCCn1c2ccccc2c2c3c(c(C=O)cc21)C(=O)NC3=O` [Compound 64], the 50% inhibitory concentration (IC50) with Saos-2 cells is 1300 nM; at human CDK2-cyclin E, 7000 nM; in the experiment with U2OS cells, 1600 nM.

For `CN(C)CCCn1c2ccccc2c2c3c(c(C=NO)cc21)C(=O)NC3=O` [Compound 65], the IC50 in the experiment on Saos-2 cells came out at 680 nM; at human CDK2-cyclin E, 2800 nM; with U2OS cells, 500 nM.

As to `CC(Cn1c2ccccc2c2c3c(c(C=O)cc21)C(=O)NC3=O)N(C)C` (centres unmarked) [Compound 66], the figures for the IC50 with Saos-2 cells, at human CDK2-cyclin E and in the experiment on U2OS cells were 1200 nM, 250 nM and 2100 nM, respectively.

`CC(Cn1c2ccccc2c2c3c(c(C=NO)cc21)C(=O)NC3=O)N(C)C` (centres unmarked) [Compound 68]: the half-maximal inhibitory concentration (IC50) with Saos-2 cells amounted to 930 nM; on human CDK2-cyclin E it was 200 nM; with U2OS cells, 1200 nM.

As to `CC(Cn1c2ccccc2c2c3c(c(C=NN)cc21)C(=O)NC3=O)N(C)C` (centres unmarked) [Compound 69], the IC50 turned out to be 300 nM with Saos-2 cells, 960 nM on human CDK2-cyclin E and 680 nM in the experiment on U2OS cells.

`COC(=O)c1ccc(Cn2c3ccccc3c3c4c(c(COC5CCCCO5)cc32)C(=O)NC4=O)cc1` (centres unmarked) [Compound 79]: the IC50 on human CDK2-cyclin E is 2000 nM.

Regarding `O=C1NC(=O)c2c1c(COC1CCCCO1)cc1c2c2ccccc2n1Cc1ccc2ccccc2c1` (centres unmarked) [Compound 80], at human CDK2-cyclin E, the IC50 stood at 2400 nM.
